Measurements as given in US12150973B2, “OCA-B peptide conjugates and methods of treatment” (priority 2018, dated 2024).

Legend:
female NOD mice = test: NOD mouse model of newly manifested type 1 diabetes; type: in vivo; conditions: for pancreatic T cell infiltration (total numbers and percentages): flow cytometry; for pancreatic T cell infiltration (total numbers and percentages) / elevated blood glucose: 12 hr after final injection; for elevated blood glucose: female 14-18 week-old NOD mice, glucose newly risen above 225 mg/dL, three intravenous injections of 20 mg/kg spaced by 12 hr
Description: (§1) FIGS. 3A-D show OCA-B inhibitors and results using these peptides in primary CD4 T cells and in a NOD mouse model. […] Peptides #2 (SEQ ID NO: 2) and #3 (SEQ ID NO: 3) show efficacy. Arrows indicate position of mutant in FIG. 2C. Below: Il2 expression in primary CD4 T cells treated with 25 μM peptide #2 measured by RT-qPCR. […] In these animals, most pancreatic beta function is lost, and the diabetes arises from autoimmune inflammation (insulitis) in the pancreas, making the remaining beta cells nonfunctional.
Blood collection occurred prior to 2nd injection and 12 hr after final injection. […] Il2 gene expression was measured by TaqMan RT-qPCR. […] FIGS. 9D and E show similar analysis conducted using pancreatic lymph nodes (PLNs).
The peptide was synthesized and purified for an in vivo experiment. T1D onset in NOD mice is spontaneous and acute, allowing the administration of the peptide as symptoms arise. Female 14-18 week-old NOD mice whose glucose levels were newly-risen above 225 mg/dL but were still below 275 mg/dL were treated with three intravenous injections of 20 mg/kg peptide or Tat-only peptide control. The peptide half-life in serum was predicted to be ˜5 hr, and therefore the injections were spaced by 12 hr. Twelve hours after the final injection, blood glucose was collected and flow cytometry performed on the pancreas and pancreatic lymph nodes (PLNs). Strikingly, the inhibitor reversed elevated blood glucose (FIG. 3B; also see, FIG. 9), pancreatic T cell infiltration (both total numbers and percentages, FIG. 3C and not shown; also see, FIG. 9) and pro-inflammatory IFNγ and IL-17A cytokine production (not shown). Control peptide at the same concentration had no effect. […] OCA-B levels in B cells are at least 50-fold higher than in T cells (Immgen), making it likely that the observed effects are due to competitive inhibition in T cells. […] This peptide was used as a proto-drug to assess function and possible side effects.

primary CD4 T cells = test: Il2 and Ifng expression in restimulated primary CD4 T cells (RT-qPCR); type: cell-based
Description: as §1
Disclosed herein are methods that can be carried out to determine the efficacy of one or more peptides for their ability to block the interaction of OCA-B and Jmjd1a or Oct1. In some aspects, the method can be, for low-throughput studies, treating primary human or mouse CD4 T cells that have been previously stimulated and rested in culture with the test peptide (10-50 μM), and re-stimulating cells with CD3/CD28 antibodies in the presence of inhibitor. Efficacy can be determined by suppression of e.g., Il2 gene expression in T cells receiving a second stimulation, phenocopying the OCA-B germline deficient mouse (as shown in FIG. 3A). […]

CD4 T cell = test: Viability, morphology and expansion of peptide-treated CD4 T cells; type: cell-based; conditions: 25 μM peptide
Excerpt: Peptides were designed overlapping the OCA-B surface responsible for Jmjd1a binding, and were synthesized as Tat-fusions for membrane permeability (FIG. 3A). […] Treated cells show no changes in viability, morphology or expansion (not shown). Peptide #2 was used for subsequent experiments.

[1] = NOD mice, three intravenous injections of 20 mg/kg, pancreas
[2] = NOD mice, three intravenous injections of 20 mg/kg, PLNs

GRKKRRQRRRGY [Tat-only peptide control, reference compound]
pro-inflammatory IFNγ and IL-17A cytokine production (female NOD mice; [1]): no effect | pancreatic T cell infiltration (total numbers and percentages) (female NOD mice; [1]): no effect | T1D progression / emergence (female NOD mice; NOD mouse model, three injections, short time interval): progress | elevated blood glucose (female NOD mice): no effect

ARPYQGVRVKEPVKELLRRKRGH [Peptide #3, OCA-B fragment synthesized as Tat fusion]
Il2 and Ifng expression following CD4 T cell restimulation (primary CD4 T cells; 25 μM peptide, Tat-fusion, compared with OCA-B null phenotype): phenocopies the OCA-B null phenotype | efficacy (Il2 expression in primary CD4 T cells) (primary CD4 T cells; peptides synthesized as Tat fusions, FIG. 3A): show efficacy | changes in viability, morphology or expansion of treated cells (CD4 T cell): no changes

VKELLRRKRGH-GSG(linker)-GRKKRRQRRRGY(Tat) (VKELLRRKRGHGSGGRKKRRQRRRGY) [SEQ ID NO: 10, OCA-B/Jmjd1a interface peptide fused to Tat peptide through a GSG linker]
T cell numbers or percentages in pancreatic lymph nodes (PLNs) (female NOD mice; [2]): unaffected | pro-inflammatory cytokine production in pancreatic lymph nodes (PLNs) (female NOD mice; [2]): unaffected | pancreatic T cell infiltration (total numbers and percentages) (female NOD mice; [1]): reduction | elevated blood glucose (female NOD mice): strong efficacy
